{
  "source": "patent US7049341B2",
  "about": "“N-benzoylureidocinnamic acid derivatives, processes for preparing them and their use” (Aventis Pharma Deutschland GmbH, priority 2002, dated 2006)",
  "biological_target": "T1, Human glycogen phosphorylase a (Homo sapiens, UniProt P06737)",
  "T1 sequence (P06737 1-847)": "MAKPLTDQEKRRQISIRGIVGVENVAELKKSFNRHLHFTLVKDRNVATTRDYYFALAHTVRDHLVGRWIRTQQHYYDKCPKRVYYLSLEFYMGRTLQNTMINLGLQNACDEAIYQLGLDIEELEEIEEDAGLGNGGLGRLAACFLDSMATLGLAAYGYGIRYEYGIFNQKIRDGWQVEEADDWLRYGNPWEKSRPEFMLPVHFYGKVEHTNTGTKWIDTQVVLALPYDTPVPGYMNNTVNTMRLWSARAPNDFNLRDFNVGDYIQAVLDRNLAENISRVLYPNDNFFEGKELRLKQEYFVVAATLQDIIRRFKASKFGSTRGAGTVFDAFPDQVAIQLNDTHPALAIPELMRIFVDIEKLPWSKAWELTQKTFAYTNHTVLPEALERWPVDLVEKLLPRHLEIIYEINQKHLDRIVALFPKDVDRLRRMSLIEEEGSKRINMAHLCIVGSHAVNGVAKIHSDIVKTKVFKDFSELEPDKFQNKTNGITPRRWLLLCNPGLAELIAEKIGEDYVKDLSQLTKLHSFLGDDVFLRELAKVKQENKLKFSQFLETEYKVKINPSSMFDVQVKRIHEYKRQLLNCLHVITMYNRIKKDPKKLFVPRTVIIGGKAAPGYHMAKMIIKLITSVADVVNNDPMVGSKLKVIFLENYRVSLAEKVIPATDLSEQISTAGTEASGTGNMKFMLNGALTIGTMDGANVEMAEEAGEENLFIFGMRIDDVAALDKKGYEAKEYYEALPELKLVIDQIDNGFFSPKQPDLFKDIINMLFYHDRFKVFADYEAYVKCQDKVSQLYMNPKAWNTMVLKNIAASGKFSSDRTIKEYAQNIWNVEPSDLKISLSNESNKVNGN",
  "assay": "Glycogen phosphorylase a activity test (reverse direction, release of inorganic phosphate)",
  "assay_type": "biochemical",
  "conditions": "10 μM concentration of the test substance; in vitro, duplicate determinations",
  "experimental": "Glycogen Phosphorylase a Activity Test\nThe effect of compounds on the activity of the active form of glycogen phosphorylase (GPa) was measured in the reverse direction by monitoring the synthesis of glycogen from glucose 1-phosphate by determining the release of inorganic phosphate. All the reactions were carried out as duplicate determinations in 96-well microtiter plates (Half Area Plates, Costar No. 3696), with the change in absorption due to the formation of the reaction product being measured, at the wavelength specified below, in a Multiscan Ascent Elisa Reader (Lab Systems, Finland). In order to measure the enzymic activity of GPa in the reverse direction, the conversion of glucose 1-phosphate into glycogen and inorganic phosphate was measured in accordance with the general method of Engers et al. (Engers H D, Shechosky S, Madsen N B, Can J Biochem 1970 July;48(7): 746–754) but with the following modifications: Human glycogen phosphorylase a (for example containing 0.76 mg of protein/ml (Aventis Pharma Deutschland GmbH), dissolved in buffer solution E (25 mM β-glycerophosphate, pH 7.0, 1 mM EDTA and 1 mM dithiothreitol), was diluted with buffer T (50 mM Hepes, pH 7.0, 100 mM KCl, 2.5 mM EDTA, 2.5 mM MgCl2.6H2O), and addition of 5 mg of glycogen/ml, to a concentration of 10 μg of protein/ml. Test substances were prepared as a 10 mM solution in DMSO and diluted down to 50 μM with buffer solution T. 10 μl of 37.5 mM glucose, dissolved in buffer solution T and 5 mg/ml of glycogen, and also 10 μl of a solution of human glycogen phosphorylase a (10 μg of protein/ml) and 20 μl of glucose 1-phosphate, 2.5 mM, were added to […] of the solution. The basal value of the activity of the glycogen phosphorylase a in the absence of test substance was determined by adding 10 μl of buffer solution T (0.1% DMSO). The mixture was incubated at room temperature for 40 minutes and the inorganic phosphate which was released was measured using the general method of Drueckes et al. (Drueckes P, Schinzel R, Palm D, Anal Biochem 1995 Sep. 1;230(1):173–177) but with the following modifications: 50 μl of a stop solution of 7.3 mM ammonium molybdate, 10.9 mM zinc acetate, 3.6% ascorbic acid, 0.9% SDS are added to 50 μl of the enzyme mixture. After 60 minutes of incubation at 45° C., the absorption was measured at 820 nm. In order to determine the background absorption, the stop solution was added immediately after adding the glucose 1-phosphate solution in a separate assay. This test was carried out using a 10 μM concentration of the test substance in order to determine the respective inhibition of glycogen phosphorylase a by the test substance in vitro.",
  "data": [
    {"smiles": "COC(=O)C=Cc1cc(C(=O)OC)ccc1NC(=O)NC(=O)c1cc(F)c(F)cc1Cl", "note": "[Example 11, Methyl 4-[3-(2-chloro-4,5-difluorobenzoyl)ureido]-3-(2-methoxycarbonylvinyl)benzoate]", "values": [
      {"measurement": "inhibition at 10 µM", "result": 91, "unit": "%"}
    ]},
    {"smiles": "O=C(O)C=Cc1ccccc1NC(=O)NC(=O)c1cc(F)c(F)cc1Cl", "note": "[Example 2, 3-{2-[3-(2-chloro-4,5-difluorobenzoyl)ureido]phenyl}acrylic acid]", "values": [
      {"measurement": "inhibition at 10 µM", "result": 101, "unit": "%"}
    ]},
    {"smiles": "COC(=O)C=Cc1cc(C(=O)O)ccc1NC(=O)NC(=O)c1cc(F)c(F)cc1Cl", "note": "[Example 7, 4-[3-(2-chloro-4,5-difluorobenzoyl)ureido]-3-(2-methoxycarbonylvinyl)benzoic acid]", "values": [
      {"measurement": "inhibition at 10 µM", "result": 96, "unit": "%"}
    ]},
    {"smiles": "CC(=O)Nc1ccc(C=CC(=O)O)c(NC(=O)NC(=O)c2cc(F)c(F)cc2Cl)c1", "note": "[Example 3, 3-{4-Acetylamino-2-[3-(2-chloro-4,5-difluorobenzoyl)ureido]phenyl}acrylic acid]", "values": [
      {"measurement": "inhibition at 10 µM", "result": 95, "unit": "%"}
    ]}
  ]
}
